Where a SMILES comes first, the peptide text is derived from it.
Legend:
[1] = test system: DIO mice; assay: daily i.p. S38151 in diet-induced obese mice; type: in vivo, mouse
Description: In these studies, 13-week-old female C57BL/6J, ob/ob, and MCH1-KO mice were used. The mice were maintained on a 12-h light/dark cycle (lights on at 07:30 and off at 19:30) at 22 ± 3°C, and supplied with food pellets (6 mm diameter A03, UAR Laboratory chow, Epinay Villemuisson France) and tap water ad libitum. To induce obesity in C57BL/6J (creating diet-induced obese, or DIO, mice), mice were fed a high-fat diet (60 kcal% fat, 20 kcal% protein, 20 kcal% carbohydrate, ref D12492 from Research Diets, New Brunswick, NJ08901, USA) for 8 weeks starting at 4 weeks of age. In these experiments, DIO mice, ob/ob mice, and MCH^−/−1 mice were individually housed in a modular chamber that was placed on an activity platform to concurrently measure the food intake, water intake, and activity of the mice (ADDENFI, Les Cordeliers, Paris, France). For at least 2 weeks before experimentation, mice were habituated to a diet of 6 mm diameter food pellets of the following composition: 67.5% food flour, 26.5% sucrose, 5% gum tragacanth, 1.25% magnesium stearate (A03 UAR, Orge, France), and to i.p. injection. After this habituation period, food intake, drink intake, and body weight were measured for 3 consecutive days. The mice were randomized into three groups based on their food and water intake over the three preceding 24-h periods, and on their body weight. […]
Figure 9 The effects of repeated daily S38151 injection on food and water intake, body weight, and motility in diet-induced obese (DIO) mice. […] Results are expressed as mean ± SEM (n = 8 mice per group).

[2] = test system: Zucker fa/fa rats; assay: acute i.p. administration, food intake in fasted rats; type: in vivo, rat; details: S38151 30 mg/kg i.p.
Description: Zucker fa/fa rats were habituated in the same conditions as Wistar rats (described in section “Acute Central Peptide Administration and Feeding Studies in Wistar Rats”). At 09:00 on the day of study, after fasting for 24 h, either vehicle (normal saline) or S38151 [30 mg/kg (20 μmol/kg)] was administered intraperitoneally (i.p.).
Figure 6 The effect of S38151 on food intake in Zucker fa/fa rats after acute peripheral administration. Rats were fasted for 24 h, and then injected (i.p.) at the beginning of the light phase with vehicle (normal saline) or 30 mg/kg S38151. Cumulative food intake was measured 1, 2, 4, 6, and 24 h after injection. Results are expressed as mean ± SEM (n = 16 rats per group).

[3] = test system: MCH1-KO mice; assay: daily i.p. S38151 in MCH1-KO mice; type: in vivo, mouse
Description: In these studies, 13-week-old female C57BL/6J, ob/ob, and MCH1-KO mice were used. The mice were maintained on a 12-h light/dark cycle (lights on at 07:30 and off at 19:30) at 22 ± 3°C, and supplied with food pellets (6 mm diameter A03, UAR Laboratory chow, Epinay Villemuisson France) and tap water ad libitum. To induce obesity in C57BL/6J (creating diet-induced obese, or DIO, mice), mice were fed a high-fat diet (60 kcal% fat, 20 kcal% protein, 20 kcal% carbohydrate, ref D12492 from Research Diets, New Brunswick, NJ08901, USA) for 8 weeks starting at 4 weeks of age. In these experiments, DIO mice, ob/ob mice, and MCH^−/−1 mice were individually housed in a modular chamber that was placed on an activity platform to concurrently measure the food intake, water intake, and activity of the mice (ADDENFI, Les Cordeliers, Paris, France). For at least 2 weeks before experimentation, mice were habituated to a diet of 6 mm diameter food pellets of the following composition: 67.5% food flour, 26.5% sucrose, 5% gum tragacanth, 1.25% magnesium stearate (A03 UAR, Orge, France), and to i.p. injection. After this habituation period, food intake, drink intake, and body weight were measured for 3 consecutive days. The mice were randomized into three groups based on their food and water intake over the three preceding 24-h periods, and on their body weight. Next, the quantity of food eaten over each 24-h period during the 5 days of i.p. treatment with S38151 [10 and 30 mg/kg/day (7 and 20 μmol/kg/day)] or vehicle was determined and corrected for spillage.
Figure 10 The effects of repeated daily S38151 injection on food and water intake, body weight, and motility in MCHR1-KO mice. MCH1-KO mice were administered S38151 (10 and 30 mg/kg, i.p.) or vehicle (normal saline i.p.) for 5 consecutive days. Results are expressed as mean ± SEM (n = 8 mice per group).

[4] = test system: Zucker fa/fa rats; assay: conditioned taste aversion; type: in vivo, rat; details: test days 4, 7, 11, 14 versus control; lithium chloride 75 mg/kg i.p.; S38151 20 nmol/kg i.c.v.; n = 10-11
[5] = S38151 30 mg/kg i.p. daily for 16 days, data not shown
[6] = S38151 10 and 30 mg/kg i.p. daily for 5 days, significant from day 2 only at 30 mg/kg, n = 8
[7] = S38151 10 and 30 mg/kg i.p. daily for 5 days, n = 8

`CSCC[C@@H]1NC(=O)[C@@H](NC(=O)c2ccc(NC(=N)N)cc2)CSSC[C@@H](C(=O)N[C@@H](Cc2c[nH]c3ccccc23)C(=O)O)NC(=O)[C@@H]2CCCN2C(=O)[C@H](CCCNC(=N)N)NC(=O)[C@H](Cc2ccc(O)cc2)NC(=O)[C@H](C(C)C)NC(=O)[C@H](CCCNC(=N)N)NC(=O)[C@H](CC(C)C)NC1=O` [S38151, p-guanidinobenzoyl-(Des-Gly10)-MCH (7–17)] (HELM PEPTIDE1{[N=C(N)Nc1ccc(C(=O)[*:2])cc1].C.M.L.R.V.Y.R.P.C.W}$PEPTIDE1,PEPTIDE1,2:R3-10:R3$$$V2.0; C-terminus assumed) was tested, and the body weight gain [1, 5] was “significant reduction”, the glycemia and insulinemia [1, 5] was “reduced” and the “triglycerides, free fatty acids, and fat mass” value [1, 5] was “significant reduction”. For the same molecule, the glycemia and insulinemia ([1]; S38151 30 mg/kg i.p., day 6, data not shown) was “significant reductions”, the body weight gain ([1]; S38151 10 and 30 mg/kg i.p. daily for 5 days, significant at day 3 and day 1, respectively) was “reduction” and the drink intake [1, 6] was “dose-dependent inhibition”. The food intake [1, 6] was “dose-dependent inhibition”, the motility ([1]; S38151 10 and 30 mg/kg i.p., day 3 to day 5) was “significant reduction” and the “food intake, first hour” value ([2]; 24-h fasted Zucker fa/fa rats, control 3.6 ± 0.4 g, mean ± SEM, n = 16) was 0.09 ± 0.06 g. The “inhibition of food consumption within 1 h” value ([2]; Zucker fa/fa rats) was “complete inhibition”, the “decrease in food intake up to 24 h after drug administration” value ([2]; cumulative food intake versus control) was “maintained statistical significance” and the motility ([3]; S38151 30 mg/kg (20 μmol/kg/day) i.p. daily for 5 days) was “significant reduction”. For the same molecule, the body weight [3, 7] was “did not induce any significant effects”, the drink intake [3, 7] was “did not induce any significant effects” and the food intake [3, 7] was “did not induce any significant effects”. The 0.2% saccharine consumption [4] was “did not affect”.
